How the values were obtained:
[1] = test system: Sprague-Dawley rats; assay: Open field odor avoidance; type: in vivo, rat; conditions: ten minute exposure, 12 animals ±SEM; 1 ml urine or 5 μl amine
Experimental: We next examined behavioral responses of rodents to 2-phenylethylamine. […] Behaviors of rats in a square-shaped arena were recorded and analyzed following placement of test stimuli in a pseudorandom corner (FIG. 5A). […] Thus, 2-phenylethylamine, in the absence of other predator odor cues, was sufficient to evoke rat avoidance behavior.
Open field behavioral analysis. Rat behavioral responses to odors in the open field were measured as described previously (Fendt M (2006) Exposure to urine of canids and felids, but not of herbivores, induces defensive behavior in laboratory rats. Journal of chemical ecology 32(12):2617-2627) with the following modifications. Adult Sprague-Dawley rats (240-340 g; Janvier, Le Genest St. Isle, France) were placed in the center of a 45 cm×45 cm Plexiglass arena (TSE Systems, Bad Homburg, Germany) equipped with infrared sensors (distance 14 mm, illumination 80-120 lux). The arena contained glass dishes (36 mm) in each corner, with one dish containing test stimuli. Prior to testing, animals were habituated to the arena by introducing them for three consecutive days. […] Location of the rats was automatically recorded using the infrared detectors and analyzed (TSE Systems software). Statistical significance was measured using Wilcoxon Signed Test (**p<0.01; comparison with chance level (25%)). […]

[2] = target: T1, mTAAR7f-SS (Mus musculus, UniProt Q5QD08, C133S/Y132S); assay: Reporter gene assay on mutant receptor mTAAR7f-SS; type: cell-based; conditions: mutant vs mTAAR7f
T1 construct: Full Taar coding regions were cloned into pcDNA3.1-(Invitrogen); Rho tag (first 20 aa of bovine rhodopsin + linker); expressed in transfected cells; host or cells: HEK293
T1 sequence (Q5QD08 1-358 Y132S/C133S): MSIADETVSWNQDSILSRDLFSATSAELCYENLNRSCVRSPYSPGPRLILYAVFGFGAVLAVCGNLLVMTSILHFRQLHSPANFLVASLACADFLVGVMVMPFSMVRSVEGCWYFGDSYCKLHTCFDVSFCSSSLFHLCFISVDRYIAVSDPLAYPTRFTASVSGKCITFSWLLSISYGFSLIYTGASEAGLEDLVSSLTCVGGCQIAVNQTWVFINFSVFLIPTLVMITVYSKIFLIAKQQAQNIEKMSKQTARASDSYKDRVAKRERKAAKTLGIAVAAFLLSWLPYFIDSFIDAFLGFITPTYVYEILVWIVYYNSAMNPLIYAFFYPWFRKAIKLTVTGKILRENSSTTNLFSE
Experimental: To test this, we created mutant receptors in which sequences of mTAAR7e were swapped into mTAAR7f and vice versa. Position 132^3.37 is a tyrosine in mTAAR7f and the other three receptors that detect 10, but a serine in mTAAR7e and a cysteine in rTAAR7h, the two receptors that detect 6. Furthermore, position 133^3.38 is a cysteine in mTAAR7f but a serine in mTAAR7e and rTAAR7h. We altered positions 132^3.37 and 133^3.38 by mutation of mTAAR7e (‘mTAAR7e-YC’) and mTAAR7f (‘mTAAR7f-SS’) and examined odor responses of these mutants using the cellular reporter gene assay (FIG. 9).
TAAR functional assays. Full Taar coding regions were cloned into pcDNA3.1-(Invitrogen) with or without a 5′ DNA extension of 69 bp encoding the first 20 amino acids of bovine rhodopsin followed by a cloning linker ([…]). Point mutations were introduced in mTAAR7e and mTAAR7f by overlap extension PCR. Functional assays were performed as described (40, 42). Fluorescence was measured on an EnVision plate reader (Perkin Elmer) and SEAP activity graphed as relative fluorescence of a phosphatase substrate.

Row | SMILES | percentage of time rats are located in the odor quadrant [1] [%] | reduced affinity of mTAAR7f-SS [2] [fold]
1 | NCCc1ccccc1 [2-phenylethylamine] | 8.0±2.0 | –
2 | CN(C)C1CCCCC1 [ligand 10, N,N-dimethylcyclohexylamine] | – | ~100
